Measurements published in the supplement of paper PMC4862054.

Tests used:
Conditions in all cases: incubation time: 72 h
HCC1937 [1] = assay: normalised response (% of control), CellTiter-Glo; higher = more viable cells (100 = DMSO, 0 = benzethonium chloride kill control)
Outline: (§1)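 Values are normalised signals, each belonging to one concentration of the series. Breast cancer cells (20 µl suspension) were seeded into 384-well plates with compound at 5 concentrations in 10-fold steps over a compound-specific 10,000-fold range and incubated 72 h. Readouts were CellTox Green fluorescence (485/520 nm), then CellTiter-Glo luminescence after 10 min at room temperature, with each plate set to 0.1 % DMSO as 100 and a positive kill control as 0.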

CAL-148 [2] = assay: as above
Outline: as §1

MDA-MB-231 [3] = assay: as above
Outline: as §1

HCC1143 [4] = assay: as above
Outline: as §1

BT-549 [5] = assay: as above
Outline: as §1

HCC1599 [6] = assay: as above
Outline: as §1

MDA-MB-453 [7] = assay: as above
Outline: as §1

CAL-51 [8] = assay: as above
Outline: as §1

Hs578T [9] = assay: as above
Outline: as §1

MCF-10A = assay: as above
Outline: as §1

SK-BR-3 [10] = assay: as above
Outline: as §1

HDQ-P1 [11] = assay: as above
Outline: as §1

CAL-120 [12] = assay: as above
Outline: as §1

MFM-223 [13] = assay: as above
Outline: as §1

MDA-MB-436 [14] = assay: as above
Outline: as §1

CAL-85-1 [15] = assay: as above
Outline: as §1

BT-474 [16] = assay: as above
Outline: as §1

MDA-MB-468 [17] = assay: as above
Outline: as §1

DU-4475 [18] = assay: as above
Outline: as §1

HCC1937 [19] = assay: normalised viability (% of control), CellTiter-Blue; higher = more viable cells (100 = DMSO, 0 = benzethonium chloride kill control)
Description: (§2)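 DSRT, CellTiter-Blue viability, 72 h incubation. Signal is normalised to DMSO and benzethonium chloride controls. Value is the normalised response at dose 1.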

CAL-148 [20] = assay: as above
Description: as §2

MDA-MB-231 [21] = assay: as above
Description: as §2

HCC1143 [22] = assay: as above
Description: as §2

BT-549 [23] = assay: as above
Description: as §2

HCC1599 [24] = assay: as above
Description: as §2

MDA-MB-453 [25] = assay: as above
Description: as §2

CAL-51 [26] = assay: as above
Description: as §2

Hs578T [27] = assay: as above
Description: as §2

SK-BR-3 [28] = assay: as above
Description: as §2

HDQ-P1 [29] = assay: as above
Description: as §2

CAL-120 [30] = assay: as above
Description: as §2

MFM-223 [31] = assay: as above
Description: as §2

MDA-MB-436 [32] = assay: as above
Description: as §2

CAL-85-1 [33] = assay: as above
Description: as §2

BT-474 [34] = assay: as above
Description: as §2

MDA-MB-468 [35] = assay: as above
Description: as §2

DU-4475 [36] = assay: as above
Description: as §2

Row | SMILES | normalised response (HCC1937 [1]) | normalised response (CAL-148 [2]) | normalised response (MDA-MB-231 [3]) | normalised response (HCC1143 [4]) | normalised response (BT-549 [5]) | normalised response (HCC1599 [6]) | normalised response (MDA-MB-453 [7]) | normalised response (CAL-51 [8]) | normalised response (Hs578T [9]) | normalised response (MCF-10A) | normalised response (SK-BR-3 [10]) | normalised response (HDQ-P1 [11]) | normalised response (CAL-120 [12]) | normalised response (MFM-223 [13]) | normalised response (MDA-MB-436 [14]) | normalised response (CAL-85-1 [15]) | normalised response (BT-474 [16]) | normalised response (MDA-MB-468 [17]) | normalised response (DU-4475 [18]) | normalised viability (HCC1937 [19]) | normalised viability (CAL-148 [20]) | normalised viability (MDA-MB-231 [21]) | normalised viability (HCC1143 [22]) | normalised viability (BT-549 [23]) | normalised viability (HCC1599 [24]) | normalised viability (MDA-MB-453 [25]) | normalised viability (CAL-51 [26]) | normalised viability (Hs578T [27]) | normalised viability (SK-BR-3 [28]) | normalised viability (HDQ-P1 [29]) | normalised viability (CAL-120 [30]) | normalised viability (MFM-223 [31]) | normalised viability (MDA-MB-436 [32]) | normalised viability (CAL-85-1 [33]) | normalised viability (BT-474 [34]) | normalised viability (MDA-MB-468 [35]) | normalised viability (DU-4475 [36])
1 | CN1CCC(COc2cnc(-c3cccc(Cn4nc(-c5cccc(C#N)c5)ccc4=O)c3)nc2)CC1 (1 nM) | 103% | 97.8% | 95.1% | 102% | 93.5% | 112% | 91.3% | 127% | 96.7% | 93.9% | 71% | 95.3% | 99.1% | 93.6% | 91.4% | 90.4% | 101% | 92.3% | 100% | 86.7% | 89.6% | 77.3% | 110% | 93.2% | 110% | 104% | 90.5% | 98.4% | 96.4% | 77.4% | 102% | 101% | 98.7% | 99.6% | 83.7% | 92.5% | 100%
2 | CN(C)C/C=C/C(=O)Nc1cc2c(Nc3ccc(F)c(Cl)c3)ncnc2cc1O[C@H]1CCOC1 [Afatinib] (1 nM) | 97.2% | 90.3% | 97.7% | 106% | 96.9% | 104% | 112% | 116% | 96.5% | 92.7% | 98.9% | 98.4% | 94.4% | 97.8% | 105% | 108% | 97.5% | 109% | 109% | 85.4% | 106% | 92.4% | 83.8% | 111% | 84.5% | 101% | 109% | 102% | 89.2% | 74.3% | 69.7% | 93.2% | 88.4% | 82% | 85.9% | 107% | 96.4%
3 | CN1CC[C@H](c2c(O)cc(O)c3c(=O)cc(-c4ccccc4Cl)oc23)[C@H](O)C1 [Alvocidib] (1 nM) | 103% | 104% | 103% | 96.5% | 106% | 94.2% | 115% | 80.2% | 98.1% | 95.2% | 112% | 94.9% | 102% | 98.2% | 97.9% | 110% | 92.2% | 106% | 104% | 96.4% | 104% | 98.1% | 78.5% | 104% | 99.6% | 95.8% | 102% | 73.7% | 97.4% | 79.7% | 75% | 88.3% | 94.3% | 83.5% | 92.3% | 113% | 101%
4 | Nc1nc(Cl)nc2c1ncn2[C@H]1C[C@H](O)[C@@H](CO)O1 [Cladribine] (0.1 nM) | 101% | 97.7% | 102% | 105% | 109% | 91.3% | 105% | 114% | 105% | 106% | 100% | 96.3% | 94.3% | 106% | 148% | 99.8% | 99.6% | 101% | 105% | 86.8% | 117% | 74.9% | 91.8% | 85.4% | 88.7% | 112% | 112% | 108% | 95.5% | 109% | 98.3% | 89.3% | 107% | 85.4% | 75.1% | 98.4% | 99.2%
5 | Nc1ccn([C@@H]2O[C@H](CO)[C@@H](O)[C@@H]2O)c(=O)n1 [Cytarabine] (1 nM) | 99.3% | 99.7% | 93.3% | 97.6% | 93.5% | 108% | 99.8% | 75.7% | 102% | 112% | 101% | 96.6% | 98.7% | 103% | 102% | 98.8% | 103% | 97.8% | 100% | 95.3% | 106% | 92.2% | 108% | 86.8% | 111% | 96.3% | 89.8% | 93.9% | 101% | 96.5% | 96.1% | 102% | 101% | 101% | 75.4% | 98.1% | 111%
6 | Cc1c2oc3c(C)ccc(C(=O)N[C@@H]4C(=O)N[C@H](C(C)C)C(=O)N5CCC[C@H]5C(=O)N(C)CC(=O)N(C)[C@@H](C(C)C)C(=O)O[C@@H]4C)c3nc-2c(C(=O)N[C@@H]2C(=O)N[C@H](C(C)C)C(=O)N3CCC[C@H]3C(=O)N(C)CC(=O)N(C)[C@@H](C(C)C)C(=O)O[C@@H]2C)c(N)c1=O [Dactinomycin] (0.1 nM) | 95.9% | 97.4% | 102% | 106% | 99.8% | 90.6% | 102% | 101% | 110% | 104% | 99% | 93.1% | 94.2% | 104% | 123% | 107% | 96% | 92.2% | 103% | 78.5% | 90.5% | 91.6% | 93.7% | 91.3% | 79.1% | 94.6% | 94% | 125% | 96% | 108% | 95.6% | 104% | 94.9% | 97.2% | 95.7% | 92.2% | 90.5%
7 | CO[C@H]1C[C@@H]2CC[C@@H](C)[C@@](O)(O2)C(=O)C(=O)N2CCCC[C@H]2C(=O)O[C@H]([C@H](C)C[C@@H]2CC[C@@H](OC(=O)C(C)(CO)CO)[C@H](OC)C2)CC(=O)[C@H](C)/C=C(\C)[C@@H](O)[C@@H](OC)C(=O)[C@H](C)C[C@H](C)/C=C/C=C/C=C/1C [Temsirolimus] (0.1 nM) | 91.1% | 99.7% | 101% | 102% | 86.6% | 89.3% | 104% | 106% | 88.2% | 104% | – | 101% | 97.5% | 103% | 103% | 100% | 104% | 88.6% | 104% | 55.3% | 96.1% | 83.6% | 94.1% | 92.8% | 99.8% | 88.1% | 98.3% | 86.6% | 92.6% | 105% | 86.7% | 77.8% | 92.4% | 79.7% | 95% | 93.5% | 99.3%
